The values below come from ChEMBL document CHEMBL1153372, “A selective matrix metalloprotease 12 inhibitor for potential treatment of chronic obstructive pulmonary disease (COPD): discovery of (S)-2-(8-(methoxycarbonylamino)dibenzo[b,d]furan-3-sulfonamido)-3-methylbutanoic acid (MMP408)” (J Med Chem, 2009).

As usually defined, the IC50 is the concentration needed to halve the response being measured. What is called half-life is the time needed for the level to fall by half in the phase considered. A lower half-life goes with fast loss. As usually defined, the clearance is the rate of elimination divided by the concentration. Lower therefore signals a low capacity for elimination. By AUC is commonly meant the area under the concentration-time curve, a measure of exposure. As a reminder, the Cmax is the maximum level reached in the sampled fluid or tissue. As usually defined, the bioavailability is the share of a dose that reaches the circulation, judged against a reference dose that is usually intravenous. Lower therefore signals poor availability.

For data set [1], the target named is Collagenase 3 (Homo sapiens, UniProt P45452). Kind of data set: Inhibition of human recombinant MMP13 expressed in Escherichia coli.
Data set [2] is described as follows: Volume of distribution at steady state in C57BL/6 mouse at 2 mg/kg, iv. The arrangement: dose 2 mg/kg, route intravenous. The data set is classed as ADME, organism-based. The conditions noted are these: in vivo, read-out: Vdss.
The nature of data set [3]: Half life in C57BL/6 mouse at 30 mg/kg, po. The class given is ADME, organism-based. The arrangement: dose 30 mg/kg, route oral. The conditions noted are these: in vivo.
Data set [4] in a line: Clearance in C57BL/6 mouse at 2 mg/kg, iv. The arrangement: dose 2 mg/kg, route intravenous. The class given is ADME, organism-based. The conditions noted are these: in vivo.
The nature of data set [5]: AUC in C57BL/6 mouse at 30 mg/kg, po. The conditions noted are these: plasma. The data set is classed as ADME, organism-based. On the set-up: dose 30 mg/kg, route oral.
A short description of data set [6]: Cmax in C57BL/6 mouse at 30 mg/kg, po. The class given is ADME, organism-based. On the set-up: dose 30 mg/kg, route oral. The conditions noted are these: in vivo.
Data set [7] can be described thus: Oral bioavailability in C57BL/6 mouse at 30 mg/kg. The conditions noted are these: in vivo. The data set is classed as ADME, organism-based.

Consider `CC(C)[C@@H](NS(=O)(=O)c1ccc2oc3ccccc3c2c1)C(=O)O`, for which, in data set [1], the IC50 was found to be 2500 nM.

Regarding `COC(=O)Nc1cc2oc3ccc(S(=O)(=O)N[C@@H](C(=O)O)C(C)C)cc3c2cc1Br`, in data set [1], the IC50 worked out at 25400 nM.

On to `CC(C)[C@@H](NS(=O)(=O)c1ccc2oc3cc(NS(=O)(=O)c4ccccc4)ccc3c2c1)C(=O)O`, for which the half-inhibitory concentration (IC50) in data set [1] was found to be 6000 nM.

For `CC(C)[C@H](NS(=O)(=O)c1ccc2c(c1)oc1ccc(NS(C)(=O)=O)cc12)C(=O)O`, the IC50 in data set [1] turned out to be 93 nM.

For the compound `CC(C)[C@@H](NS(=O)(=O)c1ccc2oc3cc(NS(=O)(=O)C(C)C)ccc3c2c1)C(=O)O`, in data set [1], the half-maximal inhibitory concentration (IC50) is 120 nM.

With `Cc1noc(C)c1S(=O)(=O)Nc1ccc2c(c1)oc1ccc(S(=O)(=O)N[C@@H](C(=O)O)C(C)C)cc12`, in data set [1], the IC50 was determined as 34000 nM.

`COC(=O)Nc1ccc2c(c1)oc1ccc(S(=O)(=O)N[C@@H](C(=O)O)C(C)C)cc12`: in data set [2], the Vd was determined as 1.6 L/kg. For the same compound, the half-life in data set [3] was 2.7 h. For the same compound, the clearance in data set [4] stood at 8.3 mL/min/kg. The compound also returned an AUC in data set [5] of 21700 ng·h/mL. Also, the Cmax in data set [6] came to 10600 ng/mL. Moreover, the bioavailability in data set [7] came out at 36%. Further, the half-inhibitory concentration (IC50) in data set [1] is 500 nM.

With `CCCOC(=O)Nc1ccc2c(c1)oc1ccc(S(=O)(=O)N[C@@H](C(=O)O)C(C)C)cc12`, in data set [1], the half-maximal inhibitory concentration (IC50) stood at 109 nM.

In the case of `CC(C)OC(=O)Nc1ccc2c(c1)oc1ccc(S(=O)(=O)N[C@@H](C(=O)O)C(C)C)cc12`, the IC50 in data set [1] came to 500 nM.

Consider `CC(C)[C@@H](NS(=O)(=O)c1ccc2oc3cc(NS(C)(=O)=O)ccc3c2c1)C(=O)O`, for which the Vd in data set [2] worked out at 1.9 L/kg. This compound also showed a half-life in data set [3] of 2 h. Moreover, the clearance in data set [4] was 141 mL/min/kg. This compound also yielded an area under the curve (AUC) in data set [5] of 245 ng·h/mL. The highest level in data set [6] (Cmax) was 103 ng/mL. Besides, in data set [7], the bioavailability stood at 7%.

Turning to `CC(C)[C@H](NS(=O)(=O)c1ccc2c(c1)oc1ccc(NS(=O)(=O)CC(F)(F)F)cc12)C(=O)O`, in data set [1], the half-maximal inhibitory concentration (IC50) was determined as 670 nM.

For the compound `CC(C)[C@@H](NS(=O)(=O)c1ccc2oc3cc(NC(=O)Oc4ccccc4)ccc3c2c1)C(=O)O`, the IC50 in data set [1] is 600 nM.

For `COC(=O)Nc1cc2oc3ccc(S(=O)(=O)N[C@H](C(=O)O)C(C)C)cc3c2cc1Br`, the IC50 in data set [1] is more than 25000 nM.

In the case of `CC(C)[C@H](NS(=O)(=O)c1ccc2c(c1)oc1ccc(NC(=O)Oc3ccc(F)cc3)cc12)C(=O)O`, the IC50 in data set [1] came out at 200 nM.

Turning to `CC(C)[C@H](NS(=O)(=O)c1ccc2c(c1)oc1cc(NC(=O)OCCF)ccc12)C(=O)O`, the IC50 in data set [1] is 97 nM.

In the case of `CC(C)[C@H](NS(=O)(=O)c1ccc2c(c1)oc1cc(NC(=O)Oc3ccc(F)cc3)ccc12)C(=O)O`, the IC50 in data set [1] turned out to be 361 nM.

As for `CC(C)[C@H](NS(=O)(=O)c1ccc2c(c1)oc1ccc(NC(=O)NC3CCCC3)cc12)C(=O)O`, the concentration for half-maximal inhibition (IC50) in data set [1] amounted to 2.1 nM.

As for `CC(C)[C@H](NS(=O)(=O)c1ccc2c(c1)oc1ccc(NC(=O)NCCc3cccs3)cc12)C(=O)O`, the Vd in data set [2] was determined as 15.6 L/kg. In data set [4], this compound gave a clearance of 211 mL/min/kg. The concentration for half-maximal inhibition (IC50) in data set [1] worked out at 1.1 nM.

Turning to `CC(C)[C@H](NS(=O)(=O)c1ccc2c(c1)oc1ccc(NC(=O)Oc3ccccc3Cl)cc12)C(=O)O`, the IC50 in data set [1] was 180 nM.

`COC(=O)Nc1ccc2c(c1)oc1cc(S(=O)(=O)N[C@H](C(=O)O)C(C)C)ccc12`: the IC50 in data set [1] was more than 1000 nM.

Regarding `CCCOC(=O)Nc1ccc2oc3cc(S(=O)(=O)N[C@H](C(=O)O)C(C)C)ccc3c2c1`, the IC50 in data set [1] stood at 10 nM.

For `CC(C)COC(=O)Nc1ccc2oc3cc(S(=O)(=O)N[C@H](C(=O)O)C(C)C)ccc3c2c1`, in data set [1], the 50% inhibitory concentration (IC50) was 10 nM.

As for `CC(C)[C@H](NS(=O)(=O)c1ccc2oc3ccccc3c2c1)C(=O)O`, the IC50 in data set [1] turned out to be 25000 nM.

As for `CC(C)[C@H](NS(=O)(=O)c1ccc2c(c1)oc1ccc(NC(N)=O)cc12)C(=O)O`, in data set [1], the IC50 is 59 nM.

Take `CCOC(=O)Nc1ccc2oc3cc(S(=O)(=O)N[C@H](C(=O)O)C(C)C)ccc3c2c1`: the Vd in data set [2] was found to be 1.6 L/kg. In data set [3], this compound showed a half-life of 3.4 h. The compound further gave a clearance in data set [4] of 19 mL/min/kg. Also, the AUC in data set [5] was found to be 10800 ng·h/mL. For the same compound, in data set [6], the peak concentration (Cmax) worked out at 7790 ng/mL. In data set [7], this compound had a bioavailability of 42%. Also, the 50% inhibitory concentration (IC50) in data set [1] amounted to 100 nM.

As to `CC(C)[C@H](NS(=O)(=O)c1ccc2c(c1)oc1ccc(NC(=O)OCCF)cc12)C(=O)O`, in data set [1], the half-maximal inhibitory concentration (IC50) came out at 10 nM.

As to `CC(C)[C@H](NS(=O)(=O)c1ccc2c(c1)oc1ccc(NC(=O)Oc3ccccc3)cc12)C(=O)O`, in data set [1], the concentration for half-maximal inhibition (IC50) was 220 nM.

In the case of `Cc1ccc(OC(=O)Nc2ccc3oc4cc(S(=O)(=O)N[C@H](C(=O)O)C(C)C)ccc4c3c2)cc1`, the half-maximal inhibitory concentration (IC50) in data set [1] is 100 nM.

In the case of `CC(C)[C@H](NS(=O)(=O)c1ccc2c(c1)oc1ccc(NC(=O)Nc3ccsc3)cc12)C(=O)O`, the IC50 in data set [1] is 3.3 nM.
